From article PMC3458020, “High-Throughput Screening for Novel Inhibitors of Neisseria gonorrhoeae Penicillin-Binding Protein 2” (PLoS ONE, 2012)
Read-outs that look alike come from different tables or passages of the source.

Assays:
[1] = target: T1, N. gonorrhoeae PBP 2 (Neisseria gonorrhoeae, UniProt P08149); assay: FP-based concentration-response competition assay with Bocillin-FL; format: binding; details: 1 µM PBP 2, 1 µM Bocillin-FL
T1 construct: A soluble construct of wild-type PBP 2; made in house
T1 sequence (P08149 44-581 limits assumed): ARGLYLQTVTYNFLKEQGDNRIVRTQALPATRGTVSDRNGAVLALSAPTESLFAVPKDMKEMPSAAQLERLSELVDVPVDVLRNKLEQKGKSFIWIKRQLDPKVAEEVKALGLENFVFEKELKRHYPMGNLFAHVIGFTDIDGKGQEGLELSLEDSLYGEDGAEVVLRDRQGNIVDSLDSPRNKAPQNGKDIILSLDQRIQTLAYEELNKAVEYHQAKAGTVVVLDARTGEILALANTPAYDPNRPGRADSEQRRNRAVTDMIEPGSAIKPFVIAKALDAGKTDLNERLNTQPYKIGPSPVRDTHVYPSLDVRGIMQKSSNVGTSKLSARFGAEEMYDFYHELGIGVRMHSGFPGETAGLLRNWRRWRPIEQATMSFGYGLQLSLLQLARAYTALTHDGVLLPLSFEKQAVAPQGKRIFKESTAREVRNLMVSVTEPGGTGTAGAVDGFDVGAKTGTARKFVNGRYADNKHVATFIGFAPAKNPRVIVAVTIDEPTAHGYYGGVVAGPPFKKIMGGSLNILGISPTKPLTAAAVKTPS
Description: (§1) A soluble construct of wild-type PBP 2 from the penicillin-susceptible strain of N. gonorrhoeae FA19 was expressed and purified as described previously. Bocillin FL™ was obtained from Invitrogen Inc. (Carlsbad, CA). Penicillin G and γ-Globulins from bovine blood (BGG) were purchased from Sigma (St. Louis, MO). Prior to use, all reagents were diluted in an assay buffer comprising 50 mM potassium phosphate, pH 8, and 0.1 mg/ml BGG. The DIVERSet library of 50,080 small lead compounds from ChemBridge Corporation (San Diego, CA) was provided by the MUSC Drug Discovery Core (DDC). Three laboratory strains of N. gonorrhoeae–FA19 [28], penicillin-resistant FA6140 [29], and cephalosporin-intermediate resistant Ceph^I strain 35/02 [30]–were from the laboratory collection of R. Nicholas (UNC-Chapel Hill).
(§2) Measurements of fluorescence and FP were performed on a Spectramax M5 microplate reader (Molecular Devices, Sunnyvale, CA) with excitation and emission wavelengths of 485 nm and 520 nm, respectively, using a 515 nm filter to block residual excitation light and to minimize background interference. Black, shallow 384-well micro plates (ProxiPlate ™ –384 F Plus, PerkinElmer) were used to record data. To minimize the polarization effects from any fluorophore bound to the surface of the well, both excitation and emission data were recorded from the top of the well. Reading time was 100 ms per well. Fluorescence polarization was quantified in millipolarization units (mP) according to the equation, mP = 1000×[(Iv − G.Ih)/(Iv + G.Ih)], where Iv and Ih are parallel and perpendicular emission intensity measurements, respectively, corrected for background (buffer), and G is the instrument-dependent correction coefficient, defined as a ratio of sensitivities of the detection system for vertically and horizontally polarized light. Using the equation G = Iv/Ih and SoftMax® Pro Data Acquisition & Analysis Software (Molecular Devices, Sunnyvale, CA), the G-factor was determined with dilution series of Bocillin-FL-only (free tracer). The assay window (ΔmP) was defined as the difference between protein-tracer sample and free-tracer, i.e. ΔmP = mPs – mPfree, and is a measure of the maximum specific binding.
To evaluate the performance of the assay, steady-state concentration-response experiments were carried out using penicillin G in a competition assay with Bocillin-FL. Penicillin G (0.05–1000 µM) was mixed with 1 µM PBP 2 and 1 µM Bocillin-FL, followed by a 1 hr incubation. The positive (Pc) and negative (Nc) controls were defined as the FP of the Bocillin-FL - protein and of the free tracer, respectively, in the absence of penicillin G. The FP of the Bocillin-FL - protein at 100 µM penicillin G was defined as a displaced tracer control (Dc). Since DMSO was used as a solvent in the compound library, the effect of 10% DMSO on the FP-binding assay was also determined. Data points were normalized to the maximum specific binding, which defines complete saturation of PBP 2 by Bocillin-FL in the absence of penicillin G, and IC50 values were determined using non-linear regression analysis using GraphPad Prism version 4.00 for Windows (GraphPad Software, Inc, San Diego, CA).
For the FP experiments, 0.01–200 µM of each potential hit was incubated with PBP 2 (1 µM) for 1 h, followed by an additional 30 min incubation with 1 µM Bocillin-FL to detect the residual activity of the labeled penicillin binding. For the SDS-PAGE-based concentration-response experiments, PBP 2 (1 µM) in 50 mM sodium phosphate, 0.01% Triton X-100, pH 8 was incubated with 0.05–1000 µM of a compound for 1 h, followed by additional 15 min incubation with 10 µM Bocillin-FL. The reaction was stopped by mixing each sample with 5 X SDS-loading buffer, followed by boiling for 2 min. The samples were submitted to electrophoresis on 10% Mini-Protean TGX™ SDS-PAGE gels (Bio-Rad, Hercules, CA) to separate bound PBP 2 from free ligand. […]

[2] = target: T1, N. gonorrhoeae PBP 2; assay: FP high-throughput screening assay (Bocillin-FL binding to PBP 2); parameters: Inhibition (%) of Bocillin-FL binding to PBP 2: concentration or dose not given beside the values; details: four replicates; for Compound (mP) (mean ± SD): FP signal of individual compound with PBP 2 and Bocillin-FL; for Inhibition (%) of Bocillin-FL binding to PBP 2: individual compounds
Description: as §1, §2
HTS screening against the ChemBridge DIVERSet library was carried out under the following conditions: 1 µl of each compound (10% DMSO final) in duplicate was pre-incubated with 9 µl of PBP 2 for 1 h at room temperature, followed by additional 30 min incubation with 2 µl Bocillin-FL (0.87 µM PBP2∶ 1 µM Bocillin-FL final). In addition to samples with the compounds, each plate also contained 2 background wells (12 µl buffer only), and at least 4 wells each for Pc, Nc, and Dc reactions. All samples used for background measurements or controls included 10% DMSO. Initial screening was carried out with 10 mM cocktails of 10 compounds (giving a final concentration of 100 µM for each compound). […] The auto fluorescence of each compound was also tested individually.

[3] = target: T1, N. gonorrhoeae PBP 2; assay: SDS-PAGE-based concentration-response assay with Bocillin-FL (0.01% Triton X-100); format: binding
Description: as §1
For the FP experiments, 0.01–200 µM of each potential hit was incubated with PBP 2 (1 µM) for 1 h, followed by an additional 30 min incubation with 1 µM Bocillin-FL to detect the residual activity of the labeled penicillin binding. For the SDS-PAGE-based concentration-response experiments, PBP 2 (1 µM) in 50 mM sodium phosphate, 0.01% Triton X-100, pH 8 was incubated with 0.05–1000 µM of a compound for 1 h, followed by additional 15 min incubation with 10 µM Bocillin-FL. The reaction was stopped by mixing each sample with 5 X SDS-loading buffer, followed by boiling for 2 min. The samples were submitted to electrophoresis on 10% Mini-Protean TGX™ SDS-PAGE gels (Bio-Rad, Hercules, CA) to separate bound PBP 2 from free ligand. At least two independent reactions were performed in duplicate at each concentration of an inhibitor. Gels were visualized by UV using a Kodak EDAS 290 imaging system (Scientific Imaging Systems Eastman Kodak, New Haven, CT, USA) and the protein bands were stained with Coomassie to verify equal loading. Densitometry was performed with ImageJ 1.37v program (National Institutes of Health, USA, http://rsb.info.nih.gov/ij/). In both methods, data points were normalized to the maximum value of the fluorescence intensity, which defines complete saturation of PBP 2 by Bocillin-FL in the absence of compound, and IC50 values of the inhibitors were defined as the concentration of a compound at 50% of the residual activity of Bocillin-FL and calculated using GraphPad Prism (see above).

[4] = tested on: N. gonorrhoeae FA19; assay: MIC on GCB agar plates, strain FA19; format: cell-based; details: Neisseria gonorrhoeae
Description: (§3) Three strains of N. gonorrhoeae were used in susceptibility tests: 1) FA19, a penicillin-and cephalosporin-susceptible strain; 2) FA6140, a penicillin-resistant but cephalosporin-susceptible strain; and 3) 35/02, a penicillin-resistant and cephalosporin intermediate-resistant strain. The disc diffusion zone method was applied for preliminary testing of “hits” identified in the screening process. For this method, 100 µl of a cell suspension (∼1×10^7 bacteria) was added to 3 ml of GCB top agar (GC Broth containing 0.75% agar) at 50 °C, which was then added to GCB plates and allowed to solidify. Five µl of each compound (5 µg) was added separately to antibiotic susceptibility discs (BBL™, BD, Franklin Lakes, NJ), the discs were placed on top of plates, and the plates were incubated overnight in a 4% CO2 incubator at 37 °C. Those compounds that produced a visible zone of inhibition were then tested for their MICs on agar plates as described. Briefly, GCB agar plates containing increasing amounts of the tested compounds were spotted with 5×10^4 cells. The lowest concentration of the test compound that prevented growth of <5 colonies was defined as the MIC. These experiments were repeated three times, with each experiment producing similar results.

[5] = tested on: N. gonorrhoeae 35/02; assay: MIC on GCB agar plates, strain 35/02; format: cell-based; details: Neisseria gonorrhoeae
Description: as §3

[6] = tested on: N. gonorrhoeae FA6140; assay: MIC on GCB agar plates, strain FA6140; format: cell-based; details: Neisseria gonorrhoeae
Description: as §3

[7] = target: T2, PBP 2 (Neisseria gonorrhoeae, UniProt P08149); assay: Mass spectrometry test for covalent interaction with PBP 2; details: data not shown
T2 construct: A soluble construct of wild-type PBP 2; made in house
T2 sequence (P08149 44-581 limits assumed): as above

[8] = IC50 measured by FP, 0.01–200 µM compound, four replicates
[9] = IC50, SDS-PAGE assay, 1 µM PBP 2, 10 µM Bocillin-FL, 0.01% Triton X-100
[10] = IC50 measured by SDS-PAGE, 0.01% Triton X-100, 1 µM PBP 2, 10 µM Bocillin-FL, two independent experiments
[11] = penicillin- and cephalosporin-susceptible strain FA19, read-out: MIC FA19
[12] = penicillin-resistant, cephalosporin intermediate-resistant strain 35/02, read-out: MIC 35/02
[13] = penicillin-resistant, cephalosporin-susceptible strain FA6140, read-out: MIC FA6140

Row | Structure (SMILES) | IC50 [1, 8] | Compound (mP) (mean ± SD) [2] | Inhibition (%) of Bocillin-FL binding to PBP 2 [2] | IC50 [3, 9] | IC50 [3, 10] | MIC [4, 11] | MIC [5, 12] | MIC [6, 13] | MIC ([4]; FA19, read-out: MIC FA19) | MIC ([5]; 35/02, read-out: MIC 35/02) | MIC ([6]; FA6140, read-out: MIC FA6140) | IC50 ([3]; IC50, SDS-PAGE assay, same IC50 given in µg/ml) | MIC ([4]; strain FA19, MIC given in µM, read-out: MIC FA19) | MIC ([5]; strain 35/02, MIC given in µM, read-out: MIC 35/02) | MIC ([6]; strain FA6140, MIC given in µM, read-out: MIC FA6140) | Covalent interaction with PBP 2 (mass of the protein) [7] | IC50 ([1]; IC50 of penicillin G for PBP 2 (FP-based competition assay), with 10% DMSO) | IC50 ([1]; IC50 of penicillin G for PBP 2 (FP-based competition assay), without DMSO)
1 | CCc1ccc(O)c(/N=C/c2cc(I)cc(I)c2O)c1 [Compound 1] | 114 µM | 31.4±0.1 mP | 108.2% | 221 µM | 221 µM | 4 µg/mL | 16 µg/mL | 16 µg/mL |  |  |  |  |  |  |  |  |  | 
2 | O=Cc1cc(Cc2ccccc2)cc([N+](=O)[O-])c1O [Compound 2] | 330 µM | 60.4±20.3 mP | 85.8% | 128 µM | 128 µM | 4 µg/mL | 8 µg/mL | 16 µg/mL |  |  |  |  |  |  |  |  |  | 
3 | Sc1nnc(-c2ccc(Cl)cc2Cl)n1/N=C/C=C/c1ccco1 [Compound 3] | 129 µM | 65.7±12.4 mP | 81.8% | 898 µM |  | 16 µg/mL | 32 µg/mL | 32 µg/mL |  |  |  |  |  |  |  |  |  | 
4 | O=S(=O)(Nc1ccc(O)c2ccccc12)c1cccc2ccccc12 [Compound 4] | 51.4 µM | 35.6±2.1 mP | 105.4% | 50 µM | 50.2 µM | 16 µg/mL | 16 µg/mL | 16 µg/mL |  |  |  |  |  |  |  |  |  | 
5 | CCc1ccc(S(=O)(=O)Nc2ccc(O)c3ccccc23)cc1 [Compound 5] | 52.1 µM | 43.3±0.8 mP | 97.6% | 56 µM | 56.3 µM | 8 µg/mL | 16 µg/mL | 16 µg/mL |  |  |  |  |  |  |  |  |  | 
6 | O=c1sc2ccccc2c(O)c1C(c1ccccc1)c1c(O)c2ccccc2sc1=O [Compound 6] | 50.9 µM | 54.6±3.2 mP | 89.5% | 49 µM | 49.3 µM |  |  |  | 4 µg/mL | 8 µg/mL | 8 µg/mL |  |  |  |  |  |  | 
7 | CN1C(=O)/C(=C2\SC(=S)NC2=O)c2cc(Br)ccc21 [Compound 7] | 11.3 µM | 45.2±20.2 mP | 96.6% | 153 µM | 153 µM | 2 µg/mL | 8 µg/mL | 8 µg/mL |  |  |  | 152 µM | 5.6 µM | 23.4 µM | 23.4 µM | no increase in mass of the protein was observed |  | 
8 | CC1(C)S[C@@H]2[C@H](NC(=O)Cc3ccccc3)C(=O)N2[C@H]1C(=O)O [Penicillin G, reference compound] |  |  |  |  |  |  |  |  |  |  |  |  |  |  |  |  | 1 µM | 1.4 µM
